# Test results taken from patent US7524853B2 (Solvay Pharmaceuticals B.V., priority 2003, dated 2009).
# Experiments:
# Assay type in all cases: cell-based
# [1] = target: T1, 17β-hydroxysteroid dehydrogenase type 3 (17β-HSD type 3) (Homo sapiens, UniProt P37058); experiment: Inhibition of 17β-HSD type 3 in MCF-7 cells stably expressing the isoenzyme (tritium labeled androstenedione conversion, HPLC); conditions: MCF7, MCF-7 cells expressing 17β-HSD type 3, 2 nM tritium labeled androstenedione; for inhibition at 1 µM: 1 μM test compound, read-out: % Inhibition HSD3 1 μM; for inhibition at 10 µM: 10 μM test compound, read-out: % Inhibition HSD3 10 μM
# T1 construct: expressed in transfected cells; host or cells: MCF-7
# T1 sequence (P37058 1-310): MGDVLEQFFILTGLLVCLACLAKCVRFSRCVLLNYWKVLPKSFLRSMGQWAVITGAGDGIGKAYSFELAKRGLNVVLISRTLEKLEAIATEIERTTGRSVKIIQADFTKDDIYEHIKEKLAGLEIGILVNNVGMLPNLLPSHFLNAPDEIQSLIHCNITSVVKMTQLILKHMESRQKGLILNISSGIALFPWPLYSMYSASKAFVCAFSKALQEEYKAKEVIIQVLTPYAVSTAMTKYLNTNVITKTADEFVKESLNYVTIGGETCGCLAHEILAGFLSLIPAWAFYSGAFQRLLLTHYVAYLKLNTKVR
# Text: (§1) Biological Testing Materials and Methods 1. Inhibition of the 17β-hydroxysteroid dehydrocienase type 1, type 2 and type 3 enzyme
# (§2) The compounds were screened in respect of 17β-HSD enzyme activity in vitro on established MCF-7 cell lines, each stably expressing one of the respective 17β-HSD isoenzymes. The interconversion of substrate by each isoenzyme and the 17β-HSD inhibiting activity of chemical compounds in these cell lines were detected by HPLC system.
# (§3) Varying amounts of the test compounds were incubated in the growth medium of the 17β-HSD expressing cells together tritium labeled substrate (2 nM estrone for 17β-HSD type 1; 2 nM estradiol for 17β-HSD type 2; and 2 nM androstenedione for 17β-HSD type 3). The medium samples were removed after exact incubation time and the reaction is stopped by trichloroacetic acid (TCA). The samples were analyzed by HPLC-coupled flow scintillation analysis.
# (§4) For each enzyme type, the HSD-inhibiting activity of an individual test compound was calculated by comparing the conversion of a control sample without any test compound (referred to as “Negative Control”) to the (reduced) conversion of the test sample containing the particular compound to be tested (referred to as “Test Sample”).
# (§5) Two concentrations of each compound were used. The number of the compound refers to the numbers indicated in the Experimental Section.
# [2] = target: T2, 17β-hydroxysteroid dehydrogenase type 1 (17β-HSD type 1) (Homo sapiens, UniProt P14061); experiment: Inhibition of 17β-HSD type 1 in MCF-7 cells stably expressing the isoenzyme (tritium labeled estrone conversion, HPLC); conditions: MCF7, MCF-7 cells expressing 17β-HSD type 1, 2 nM tritium labeled estrone; for inhibition at 1 µM: 1 μM test compound, read-out: % Inhibition HSD1 1 μM; for inhibition at 10 µM: 10 μM test compound, read-out: % Inhibition HSD1 10 μM
# T2 construct: expressed in transfected cells; host or cells: MCF-7
# T2 sequence (P14061 1-328): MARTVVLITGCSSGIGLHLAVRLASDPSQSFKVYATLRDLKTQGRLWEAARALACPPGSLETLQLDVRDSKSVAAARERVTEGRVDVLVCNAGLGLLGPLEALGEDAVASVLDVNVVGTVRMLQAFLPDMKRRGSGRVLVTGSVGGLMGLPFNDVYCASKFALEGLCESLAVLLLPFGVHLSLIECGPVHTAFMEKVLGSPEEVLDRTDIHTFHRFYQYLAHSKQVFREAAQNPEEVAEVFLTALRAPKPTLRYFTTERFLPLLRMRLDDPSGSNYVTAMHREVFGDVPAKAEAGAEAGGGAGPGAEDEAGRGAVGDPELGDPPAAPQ
# Text: as §1, §2, §3, §4, §5
# [3] = target: T3, 17β-hydroxysteroid dehydrogenase type 2 (17β-HSD type 2) (Homo sapiens, UniProt P37059); experiment: Inhibition of 17β-HSD type 2 in MCF-7 cells stably expressing the isoenzyme (tritium labeled estradiol conversion, HPLC); conditions: MCF7, MCF-7 cells expressing 17β-HSD type 2, 2 nM tritium labeled estradiol; for inhibition at 1 µM: 1 μM test compound, read-out: % Inhibition HSD2 1 μM; for inhibition at 10 µM: 10 μM test compound, read-out: % Inhibition HSD2 10 μM
# T3 construct: expressed in transfected cells; host or cells: MCF-7
# T3 sequence (P37059 1-387): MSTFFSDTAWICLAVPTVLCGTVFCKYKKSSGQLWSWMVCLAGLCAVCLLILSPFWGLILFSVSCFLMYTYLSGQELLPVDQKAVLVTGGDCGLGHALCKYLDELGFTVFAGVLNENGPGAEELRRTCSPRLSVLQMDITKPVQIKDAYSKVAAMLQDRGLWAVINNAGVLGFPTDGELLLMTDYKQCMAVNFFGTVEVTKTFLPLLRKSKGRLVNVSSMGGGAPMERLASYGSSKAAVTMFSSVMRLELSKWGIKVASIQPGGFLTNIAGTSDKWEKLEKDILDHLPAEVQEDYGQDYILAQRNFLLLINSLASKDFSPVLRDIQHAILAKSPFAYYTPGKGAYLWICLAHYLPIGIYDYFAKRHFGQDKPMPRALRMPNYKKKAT
# Text: as §1, §2, §3, §4, §5
Compound,inhibition at 1 µM [1],inhibition at 10 µM [1],inhibition at 1 µM [2],inhibition at 10 µM [2],inhibition at 1 µM [3],inhibition at 10 µM [3]
"O=C(OCCn1c(-c2cccs2)nc2sc3c(c2c1=O)CCC(Br)(Br)C3=O)c1cccs1 [No. 72, Thiophene-2-carboxylic acid 2-(7,7-dibromo-4,8-dioxo-2-thiohen-2-yl-5,6,7,8-tetrahydro-4H-benzo[4,5]thieno[2,3-d]pyrimidin-3-yl)-ethyl ester]",16.1%,64.4%,15.3%,15.2%,18%,53.9%
"O=C1c2sc3nc(-c4ccc(Br)s4)n(Cc4ccccc4)c(=O)c3c2CCC1(Br)Br [No. 66, 3-Benzyl-7,7-dibromo-2-(5-bromothiophen-2-yl)-6,7-dihydro-3H,5H-benzo[4,5]thieno[2,3-d]pyrimidine-4,8-dione]",0.3%,7.4%,7.8%,8.9%,27%,37.6%
"COc1cc(-c2nc3sc4c(c3c(=O)n2Cc2ccccc2)CCC(Br)(Br)C4=O)c(Br)c(OC)c1OC [No. 48, 3-benzyl-7,7-dibromo-2-(2-bromo-3,4,5-trimethoxyphenyl)-6,7-dihydro-3H,5H-benzo[4,5]thieno[2,3-d]pyrimidine-4,8-dione]",33.7%,23.4%,27.4%,36.5%,0.8%,25.6%
"COc1cc(-c2nc3sc4c(O)cccc4c3c(=O)n2Cc2ccccc2)c(Br)c(OC)c1OC [No. 49, 3-Benzyl-2-(2-bromo-3,4,5-trimethoxyphenyl)-8-hydroxy-3H-benzo[4,5]thieno[2,3-d]pyrimidin-4-one]",12.4%,52.6%,24.7%,86.2%,20.1%,36.9%
"COc1cc(-c2nc3sc4c(c3c(=O)n2-c2ccccc2)CCCC4=O)cc(OC)c1OC [No. 11, 3-Phenyl-2-(3,4,5-trimethoxyphenyl)-6,7-dihydro-3H,5H-benzo[4,5]thieno[2,3-d]pyrimidine-4,8-dione]",-5.6%,12.8%,14.2%,27.7%,-5.3%,12.3%
"COc1cc(-c2nc3sc4c(O)cccc4c3c(=O)n2CC2CCCO2)c(Cl)c(OC)c1OC (stereo not drawn) [No. 140, 2-(2-Chloro-3,4,5-trimethoxyphenyl)-8-hydroxy-3-(tetrahydrofuran-2-ylmethyl)-3H-benzo[4,5]thieno[2,3-d]pyrimidin-4-one]",8.8%,63.5%,39.5%,81%,10.3%,36.8%
"COc1cc(-c2nc3sc4c(c3c(=O)n2CC(C)C)C(Br)CCC4=O)cc(OC)c1OC (stereo not drawn) [No. 135, 5-Bromo-3-isobutyl-2-(3,4,5-trimethoxyphenyl)-6,7-dihydro-3H,5H-benzo[4,5]thieno[2,3-d]pyrimidine-4,8-dione]",21.8%,93.1%,54%,96.6%,19.1%,34.6%
"COc1cc(-c2nc3sc4c(c3c(=O)n2Cc2ccco2)CCCC4)cc(OC)c1OC [No. 119, 3-Furan-2-ylmethyl-2-(3,4,5-trimethoxylphenyl)-5,6,7,8-tetrahydro-3H-benzo[4,5]thieno[2,3-d]pyrimidin-4-one]",2.3%,19.1%,9.6%,27.9%,25.1%,30.1%
"COc1cc(-c2nc3sc4c(c3c(=O)n2CC(C)C)CCC(Br)C4=O)c(Br)c(OC)c1OC (stereo not drawn) [No. 116, 7-Bromo-2-(2-bromo-3,4,5-trimethoxypheny1)-3-isobutyl-6,7-dihydro-3H,5H-benzo[4,5]thieno[2,3-d]pyrimidine-4,8-dione]",8.1%,21.2%,12.5%,41.4%,28%,26.1%
"COc1c(O)cc(-c2nc3sc4c(c3c(=O)n2-c2ccccc2)CCCC4)cc1O [No. 42, 3-Phenyl-2-(3,5-dihydroxy-4-methoxyphenyl)-5,6,7,8-tetrahydro-3H-benzo[4,5]thieno[2,3-d]pyrimidin-4-one]",3.2%,4%,26.8%,56%,-1.9%,-0.5%
"CCC(C)Cn1c(-c2cc(OC)c(OC)c(OC)c2)nc2sc3c(c2c1=O)CCCC3 (stereo not drawn) [No. 125, 3-(2-Methylbutyl)-2-(3,4,5-trimethoxyphenyl)-5,6,7,8-tetrahydro-3H-benzo[4,5]thieno[2,3-d]pyrimidin-4-one]",10.9%,21%,34.7%,49.9%,11.7%,19.8%

# The remaining lines, values ahead:
inhibition at 1 µM [1],inhibition at 10 µM [1],inhibition at 1 µM [2],inhibition at 10 µM [2],inhibition at 1 µM [3],inhibition at 10 µM [3],Compound
5%,38%,1.2%,7.8%,19.2%,34.6%,"O=C1c2sc3nc(-c4ccc(Br)s4)n(Cc4ccccc4)c(=O)c3c2CCC1Br (stereo not drawn) [No. 65, 3-Benzyl-7-bromo-2-(5-bromothiophen-2-yl)-6,7-dihydro-3H,5H-benzo[4,5]thieno[2,3-d]pyrimidine-4,8-dione]"
6.8%,15.4%,18.6%,45.3%,6.8%,9.4%,"COc1ccc(-c2nc3sc4c(c3c(=O)n2-c2ccccc2)CCCC4=O)cc1 [No. 23, 3-Phenyl-2-(p-methoxyphenyl)-6,7-dihydro-3H,5H-benzo[4,5]thieno[2,3-d]pyrimidin-4,8-dione]"
14.7%,41.9%,21.3%,33.2%,18.8%,24.5%,"O=c1c2c3c(sc2nc(-c2ccccc2)n1Cc1ccccc1)CCCC3 [No. 56, 3-Benzyl-2-phenyl-5,6,7,8-tetrahydro-3H-benzo[4,5]thieno[2,3-d]pyrimidin-4-one]"
10%,45.7%,16.3%,36%,44.2%,76.9%,"O=c1c2c(nc(-c3ccccc3)n1Cc1ccccc1)sc1c(O)cccc12 [No. 60, 3-Benzyl-8-hydroxy-2-phenyl-3H-benzo[4,5]thieno[2,3-d]pyrimidine-4-one]"
19.7%,57.3%,23%,47.3%,17.5%,28.5%,"O=C1CCCc2c1sc1nc(-c3ccccc3)n(Cc3ccccc3)c(=O)c21 [No. 57, 3-Benzyl-2-phenyl-6,7-dihydro-3H,5H-benzo[4,5]thieno[2,3-d]pyrimidine-4,8-dione]"
